According to the supplement of paper PMC11628255, “Interference of metal ions on the bioluminescent signal of firefly, Renilla, and NanoLuc luciferases in high-throughput screening assays” (Frontiers in Chemistry, 2024):
± gives the standard deviation of the averaged measurements.

Columns and labels:
Test in all cases: normalised percent inhibition of luminescence (vs positive and negative controls); higher = stronger inhibition
[1] = system: Renilla luciferase (RLuc)
Experimental: (§1)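 Concentration-response (>=11 concentrations) of metal salts on purified FLuc, NLuc or RLuc luminescence in screening (SC) or 100 mM HEPES (H) buffer; salt pre-incubated with enzyme 10 min at RT, read 10 min after substrate. Normalised percent inhibition vs plate positive (PTC-124, isradipine, BTS) and DMSO negative controls; triplicate wells.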

[2] = system: firefly luciferase (FLuc)
Experimental: as §1

[3] = system: NanoLuc luciferase (NLuc)
Experimental: as §1

[Cl][Pt-2]([Cl])([Cl])[Cl].[K+].[K+] [potassium tetrachloroplatinate(II)]
normalised percent inhibition [%]
Conditions | [1] | [2] | [3]
metal salt concentration 0.0001 mM, 100 mM HEPES buffer | 6.41 ± 13 | -10.3 ± 14 | 1.21 ± 6.3
metal salt concentration 0.00025 mM, 100 mM HEPES buffer | 4.68 ± 16 | 4.97 ± 14 | -0.51 ± 2.1
metal salt concentration 0.0005 mM, 100 mM HEPES buffer | -6.41 ± 1.1 | 6.27 ± 23 | 2.19 ± 0.21
metal salt concentration 0.001 mM, 100 mM HEPES buffer | -11.3 ± 12 | 12.9 ± 5 | 0.76 ± 1.2
metal salt concentration 0.002 mM, screening conditions buffer | 13.4 ± 6.2 | 23.2 ± 18 | 6.88 ± 2.2
metal salt concentration 0.005 mM, screening conditions buffer | 5.74 ± 9.8 | 28.2 ± 14 | 2.83 ± 7.4
metal salt concentration 0.01 mM, screening conditions buffer | 8.68 ± 1.2 | 32.2 ± 10 | 1.24 ± 5.6
metal salt concentration 0.02 mM, screening conditions buffer | 2.57 ± 5.2 | 39.4 ± 9.2 | 5.06 ± 1.3
metal salt concentration 0.025 mM, 100 mM HEPES buffer | 8.38 ± 2.1 | 39.2 ± 5.7 | 4.56 ± 2.9
metal salt concentration 0.05 mM, 100 mM HEPES buffer | -3.94 ± 13 | 56.4 ± 4.2 | 10.3 ± 3.5
metal salt concentration 0.05 mM, screening conditions buffer | 19.4 ± 3.4 | 68.7 ± 7.4 | 18.1 ± 3.8
metal salt concentration 0.1 mM, 100 mM HEPES buffer | 5.67 ± 12 | 79.8 ± 4.1 | 15.1 ± 4.1
metal salt concentration 0.1 mM, screening conditions buffer | 27.8 ± 2.8 | 86 ± 3.3 | 41.9 ± 8.1
metal salt concentration 0.2 mM, screening conditions buffer | 41.3 ± 8.9 | 98.8 ± 1 | 60.3 ± 5.5
metal salt concentration 0.5 mM, 100 mM HEPES buffer | 40.7 ± 15 | 100.5 ± 0.56 | 76.6 ± 2.7
metal salt concentration 0.5 mM, screening conditions buffer | 66.7 ± 7 | 100.5 ± 0.44 | 91.6 ± 2.5
metal salt concentration 1 mM, 100 mM HEPES buffer | 69.3 ± 4.8 | 100.2 ± 0.86 | 87.7 ± 3.4
metal salt concentration 1 mM, screening conditions buffer | 95.3 ± 9.6 | 99.57 ± 0.77 | 116 ± 1.7
metal salt concentration 2.5 mM, 100 mM HEPES buffer | 97.4 ± 5.5 | 100.4 ± 0.49 | 93.7 ± 1.2
metal salt concentration 2.5 mM, screening conditions buffer | 105.3 ± 0.77 | 100.7 ± 0.14 | 129.7 ± 0.94
metal salt concentration 5 mM, 100 mM HEPES buffer | 106 | 100.4 ± 0.37 | 96.98 ± 0.93
metal salt concentration 5 mM, screening conditions buffer | 106.2 ± 0.36 | 100.8 ± 0.22 | 134.6 ± 0.32

CC#N.CC#N.CC#N.CC#N.F[B-](F)(F)F.[Cu+] [tetrakis(acetonitrile)copper(I) tetrafluoroborate]
normalised percent inhibition [%]
Conditions | [1] | [2] | [3]
metal salt concentration 15.6 nM, 100 mM HEPES buffer | – | 31.6 ± 5.6 | –
metal salt concentration 31.25 nM, 100 mM HEPES buffer | – | 19.4 ± 5.8 | –
metal salt concentration 62.5 nM, 100 mM HEPES buffer | – | 94.7 ± 2.4 | –
metal salt concentration 0.0001 mM, 100 mM HEPES buffer | -13.8 ± 1.9 | 98.82 ± 0.68 | 2.08 ± 2.5
metal salt concentration 0.000125 mM, 100 mM HEPES buffer | – | 99.64 ± 0.61 | –
metal salt concentration 0.00025 mM, 100 mM HEPES buffer | 12.4 ± 25 | 99.92 ± 0.95 | -0.342 ± 1.6
metal salt concentration 0.0005 mM, 100 mM HEPES buffer | -2.77 ± 18 | 100.6 ± 0.27 | 3.53 ± 1.5
metal salt concentration 0.0005 mM, screening conditions buffer | – | 19.7 ± 6.5 | –
metal salt concentration 0.001 mM, 100 mM HEPES buffer | -10.8 ± 24 | 100.1 ± 0.47 | 4.37 ± 2.7
metal salt concentration 0.001 mM, screening conditions buffer | – | -12.4 ± 12 | –
metal salt concentration 0.002 mM, screening conditions buffer | 12.9 ± 12 | 6.86 ± 16 | 0.453 ± 3.1
metal salt concentration 0.005 mM, screening conditions buffer | 16.7 ± 4.2 | 13.5 ± 18 | 0.553 ± 5.7
metal salt concentration 0.01 mM, screening conditions buffer | 11.3 ± 1.8 | 8.64 ± 11 | 1.88 ± 5.3
metal salt concentration 0.02 mM, screening conditions buffer | 2.75 ± 5 | 7.18 ± 12 | 9.53 ± 10
metal salt concentration 0.025 mM, 100 mM HEPES buffer | 75.8 ± 10 | 100.5 ± 0.33 | 5.84 ± 3.1
metal salt concentration 0.025 mM, screening conditions buffer | – | 20.1 ± 6.7 | –
metal salt concentration 0.05 mM, 100 mM HEPES buffer | 102 ± 4 | 100.3 ± 0.32 | 40.1 ± 16
metal salt concentration 0.05 mM, screening conditions buffer | 13.4 ± 7.8 | 3.96 ± 21 | 91.9 ± 19
metal salt concentration 0.1 mM, 100 mM HEPES buffer | 105 ± 1.1 | 100.5 ± 0.28 | 92.9 ± 4.2
metal salt concentration 0.1 mM, screening conditions buffer | 9.12 ± 4.9 | 24.1 ± 11 | 158 ± 2.2
metal salt concentration 0.2 mM, screening conditions buffer | 3.41 ± 2.5 | 31.5 ± 16 | 158.7 ± 0.69
metal salt concentration 0.25 mM, 100 mM HEPES buffer | – | 100.3 ± 0.23 | –
metal salt concentration 0.5 mM, 100 mM HEPES buffer | 106 ± 2.8 | 100.5 ± 0.16 | 101.8 ± 0.16
metal salt concentration 0.5 mM, screening conditions buffer | 106.2 ± 0.25 | 56.9 ± 11 | 160 ± 0.71
metal salt concentration 1 mM, 100 mM HEPES buffer | 107.5 ± 0.97 | 100.3 ± 0.63 | 101.8 ± 0.24
metal salt concentration 1 mM, screening conditions buffer | 106.7 ± 0.13 | 99.7 ± 1.5 | 159.9 ± 0.92
metal salt concentration 2.5 mM, 100 mM HEPES buffer | 106 ± 1.7 | 100.5 ± 0.31 | 101.9 ± 0.13
metal salt concentration 2.5 mM, screening conditions buffer | 106.6 ± 0.25 | 100.3 ± 0.32 | 161.2 ± 0.41
metal salt concentration 5 mM, 100 mM HEPES buffer | 107 ± 1.7 | 100.3 ± 0.16 | 101.9 ± 0.11
metal salt concentration 5 mM, screening conditions buffer | 106.5 ± 0.51 | 100.4 ± 0.4 | 161.65 ± 0.13
metal salt concentration 10 mM, screening conditions buffer | – | 100.1 ± 0.14 | –
metal salt concentration 20 mM, screening conditions buffer | – | 100.2 ± 0.38 | –
